Measurements from patent US10174312B2 (priority 2014, dated 2019).
Read-outs that look alike come from different tables or passages of the source. Starred links: 1 amine or outer side, 2 acyl side, 3 side chain; linkers in the order of their positions; H or OH if unused. Positions of bridges follow the written chain, without caps; N, C: chain ends. Non-standard residues stand in square brackets, D forms with d. Residues, ends and D or L forms follow the SMILES beside them. Chains are numbered I, II in the order given. Actinocin(9to1) = Cc1c2oc3c(C)ccc(C(=O)[*:1])c3nc-2c(C(=O)[*:2])c(N)c1=O; NMeV = CN[C@H](C(=O)O)C(C)C; Sar = CNCC(=O)O

Key:
[1] = system: S. pombe genome-wide heterozygous deletion strain; assay: Chemical-genetic profile by DNA chip array (S. pombe compendium, DI-HI / ecDT screening); type: cell-based, Schizosaccharomyces pombe
Excerpt: To make the genetic compendium of S. pombe heterozygous deletion strain pool, DNA was separated from the strain by the conventional method, followed by chip-hybridization to quantify the growth of the strain (S. E. Pierce, E. L. Fung, D. F. Jaramillo, et al., Nat. Methods 3 (2006) 601-603).
Then, a short DNA barcode sequence in 20 bp long (named “TAG”) was inserted in the complementary region of the genomic DNA, followed by amplification with universal primers for the flanking sequence. The amount of the amplified TAG was judged by the growth of each strain, which was quantified by using the DNA chip (Affymetrix, USA) constructed with the complementary sequence of TAG.
The result of the quantitative DNA chip array was not modified by background correction, normalization, or perfect match (PM) and the mean value was used as raw intensity (Iraw). The parameter for preprocessing the raw intensity was calculated by DNA chip array according to the conventional method informed to those in the art. To calculate the minimum value of the comparative fitness by saturated intensity, modification was performed according to the below mathematical formula 3. The normalized constant was applied to each analysis based on the modified raw intensity. For the modification, chip array was repeated 5 times with the glycerol stock deletion strain pool and the mean value was obtained. The normalized final intensity was log 2-transformed for after analysis. Icorrected=Iraw×exp(−Irawα) [Mathematical Formula 3]
In the mathematical formula 3, ‘Icorrected’ indicates the modified intensity; ‘Iraw’ indicates the raw intensity; and ‘α’ indicates the variable of modification function calculated with UPTAG and DNATAG which are 0.0003412759 and 0.0002767581 respectively.
Error model was calculated according to the conventional method in order to calculate the fitness score of the drug treated S. pombe heterozygous deletion strain.
The compendium of the drug competitive growth experiment was used as the reference set. […] N and the line of drugs of 1 . . . j . . . M. The average and variable of the reference set of each strain were calculated by the below mathematical formula 4.
Z-scores and p-values of the 4400 heterozygous deletion strains were obtained with 47 drugs. The amount of each strain was represented by UPTAG and DNTAG inserted in the upstream and the downstream of the gene that had been eliminated from each strain. To investigate the significance of p-value presenting the detect of the growth in the drug treated strain, the expected intensity of UPTAG and DNTAG in the strain was calculated by the mathematical formula 5. From the mean value thereof, Z-score presenting the statistical distance was obtained. The obtained Z-score was applied to error function or standard normal distribution according to the mathematical formula 6, and the growth detect of each strain was judged by p-value in the range of 0˜1.
The growth defect by the presence or absence of each drug was investigated by the method illustrated in the schematic diagram of FIG. 5 to judge whether the heterozygous deletion gene was haplo-insufficient (HI) or haplo-sufficient (HS).

[2] = system: S. cerevisiae heterozygous deletion strain library; details: cited from earlier work
[3] = system: pool of the S. pombe heterozygous deletion strain; type: cell-based, Schizosaccharomyces pombe; details: for growth inhibition effect on the strain (sampling errors confirmed, FIG. 3): 20 generation subculture, expected vs sampled generation
Procedure: In the course of 10 generation sub-culture and 20 generation sub-culture, OD600 was measured to confirm the doubling time. Then, pool fitness by doubling time (PFDT) was calculated by the below mathematical formula 2. […] PFDT=doubling time of the pool not-treated with the drug/doubling time of the pool treated with the drug [Mathematical Formula 2]

[4] = each drug at its Dose(M) of Table 2, 25° C.
[5] = each drug at its Dose(M) of Table 2, 25° C., PFDT = doubling time untreated pool / treated pool
[6] = second, lower dose 1.50E−08 M (Drug ID 67.2, 71.2)

Which results are given for `CO[C@@]12[C@H](COC(N)=O)C3=C(C(=O)C(C)=C(N)C3=O)N1C[C@@H]1N[C@@H]12` [Mitomycin C]?
−log (p) (Spo) ([1]; gene cdc10, dose 80 μM): −6.16; −log (p) (Spo) ([1]; gene snf21, dose 80 μM): −4.022; −log (p) (Sce) ([2]; gene SPC105, dose 1000): −14.52; −log (p) (Sce) ([2]; gene STH1, dose 1000): −5.49; −log (p) (Sce) ([2]; gene SWI6, dose 1000): −5.228; PF2DT: PFDT of the sample obtained from 20 generation subculture [3, 4]: 0.756; PF1DT: PFDT of the sample obtained from 10 generation subculture [3, 5]: 0.840

Which “PF2DT: PFDT of the sample obtained from 20 generation subculture” value (“PF2DT: PFDT of the sample obtained” for short) [3, 4] does the source give for `COc1ccc([C@@H]2Sc3ccccc3N(CCN(C)C)C(=O)[C@@H]2OC(C)=O)cc1.Cl` [Dilitiazem hydrochloride] here?
The value was 0.890.

And the “PF1DT: PFDT of the sample obtained from 10 generation subculture” value (“PF1DT: PFDT of the sample obtained” below) [3, 5]?
The value was 0.896.

Which “−log (p) (Spo)” value ([1]; gene rpa2, dose 24 μM) does the source give for `COc1cccc2c1C(=O)c1c(O)c3c(c(O)c1C2=O)C[C@@](O)(C(=O)CO)C[C@@H]3O[C@H]1C[C@H](N)[C@H](O)[C@H](C)O1` [Doxorubicin] here?
Its value is −15.09.

What about the “−log (p) (Spo)” value ([1]; gene vma1, dose 24 μM) of the same molecule?
The value was −28.26.

What about the “−log (p) (Spo)” value ([1]; gene vma7, dose 24 μM) of the same molecule?
Its value is −6.287.

And the “−log (p) (Sce)” value ([2]; gene RPA135, dose 62.5)?
Its value is −6.279.

And the “−log (p) (Sce)” value ([2]; gene TFP1, dose 62.5)?
The value was −8.374.

What about the “−log (p) (Sce)” value ([2]; gene VMA7, dose 62.5) of the same molecule?
The value was −28.85.

Which “−log (p) (Spo)” value ([1]; gene SPAC688.09, dose 250 μM) does the source give for `CC[C@H]1OC(=O)[C@H](C)[C@@H](O[C@H]2C[C@@](C)(OC)[C@@H](O)[C@H](C)O2)[C@H](C)[C@@H](O[C@@H]2O[C@H](C)C[C@H](N(C)C)[C@H]2O)[C@](C)(O)C[C@@H](C)C(=O)[C@H](C)[C@@H](O)[C@]1(C)O` [Erythromycin] here?
Its value is −42.17.

What about the “−log (p) (Sce)” value ([2]; gene RIM2, dose 2.5 mg/ml) of the same molecule?
The value was −4.63.

For `Clc1ccccc1C(c1ccccc1)(c1ccccc1)n1ccnc1` [Clotrimazole], which “−log (p) (Spo)” value ([1]; gene erg11, dose 0.1 μM) is on record?
Its value is −13.15.

For `O=C(CCCN1CCC(O)(c2ccc(Cl)cc2)CC1)c1ccc(F)cc1` [Haloperidol], which “−log (p) (Spo)” value ([1]; gene fet5, dose 88.3 μM) is on record?
Its value is −4.402.

What about the “−log (p) (Sce)” value ([2]; gene YLR243W, dose 125) of the same molecule?
Its value is −7.301.

Which “−log (p) (Spo)” value ([1]; gene ssr2, dose 500 μM) does the source give for `CN(Cc1cnc2nc(N)nc(N)c2n1)c1ccc(C(=O)N[C@@H](CCC(=O)O)C(=O)O)cc1` [Methotrexate] here?
The value was −4.28.

What about the “−log (p) (Sce)” value ([2]; gene RSC8, dose 250) of the same molecule?
Its value is −4.275.

With `OCCN(CCO)c1nc(N2CCCCC2)c2nc(N(CCO)CCO)nc(N3CCCCC3)c2n1` [Dipyridamole] as the molecule, how does the “growth inhibition effect on the strain (sampling errors confirmed, FIG. 3)” value [3] read?
The value was “growth inhibition effect”.

Which results are given for `CCCCOc1ccc(C(=O)CCN2CCCCC2)cc1` [Dyclonine]?
−log (p) (Spo) ([1]; gene SPAC22F8.08, dose 68 μM): −12.19; −log (p) (Spo) ([1]; gene SPCC1450.10c, dose 68 μM): −6.928; −log (p) (Spo) ([1]; gene rpn12, dose 68 μM): −40.98; −log (p) (Sce) ([2]; gene NAR1, dose 500): −4.84; −log (p) (Sce) ([2]; gene RPN12, dose 500): −4.338; −log (p) (Sce) ([2]; gene SEC24, dose 500): −6.632; growth inhibition effect on the strain (sampling errors confirmed, FIG. 3) [3]: growth inhibition effect

Which “−log (p) (Spo)” value ([1]; gene gpt2 heterozygous deletion, dose 0.03125 μM) does the source give for Tunicamycin here?
Its value is −4.976.

And the “−log (p) (Sce)” value ([2]; gene ALG7, dose 0.015 μM)?
Its value is −5.227.

And the “−log (p) (Sce)” value ([2]; gene ALG7, dose 150 ng/mL)?
The value was −24.

And the “PF2DT: PFDT of the sample obtained” value [3, 4]?
The value was 1.027.

And the “PF1DT: PFDT of the sample obtained” value [3, 5]?
The value was 0.935.

And the “PF1DT: PFDT of the sample obtained” value [3, 6]?
The value was 0.954.

What about the “PF2DT: PFDT of the sample obtained” value [3, 6] of the same molecule?
The value was 1.007.

Which results are given for `C=C1[C@@H](C)[C@H]2[C@H](Cc3ccccc3)NC(=O)[C@]23OC(=O)/C=C/[C@H](O)CCC[C@@H](C)C/C=C/[C@H]3[C@@H]1O` [Cytochalasin B]?
PF2DT: PFDT of the sample obtained from 20 generation subculture [3, 4]: 0.785; PF1DT: PFDT of the sample obtained from 10 generation subculture [3, 5]: 0.954

With `C[C@H]1CCC/C=C/[C@@H]2C[C@H](O)C[C@H]2[C@H](O)/C=C/C(=O)O1` [Brefeldin A] as the molecule, how does the “PF2DT: PFDT of the sample obtained” value [3, 4] read?
Its value is 0.986.

And the “PF1DT: PFDT of the sample obtained” value [3, 5]?
The value was 0.973.

What does the source list for `Cc1c2oc3c(C)ccc(C(=O)N[C@@H]4C(=O)N[C@H](C(C)C)C(=O)N5CCC[C@H]5C(=O)N(C)CC(=O)N(C)[C@@H](C(C)C)C(=O)O[C@@H]4C)c3nc-2c(C(=O)N[C@@H]2C(=O)N[C@H](C(C)C)C(=O)N3CCC[C@H]3C(=O)N(C)CC(=O)N(C)[C@@H](C(C)C)C(=O)O[C@@H]2C)c(N)c1=O` [Actinomycin D] (I: T[dV]P[Sar][NMeV] / II: T[dV]P[Sar][NMeV]; ester I:1-I:C, II:1-II:C; linker I:N-II:N via Actinocin(9to1))?
growth inhibition effect on the strain (sampling errors confirmed, FIG. 3) [3]: growth inhibition effect; PF2DT: PFDT of the sample obtained from 20 generation subculture [3, 4]: 0.709; PF1DT: PFDT of the sample obtained from 10 generation subculture [3, 5]: 0.650

Which “−log (p) (Spo)” value ([1]; S. pombe gene not printed (ortholog of RRP1), dose 0.03 μM) does the source give for `CN(C/C=C/C#CC(C)(C)C)Cc1cccc2ccccc12` [Terbinafine] here?
The value was −6.1.

And the “−log (p) (Spo)” value ([1]; gene erg1, dose 0.015 μM)?
The value was −24.83.

What about the “−log (p) (Spo)” value ([1]; gene erg1, dose 0.03 μM) of the same molecule?
The value was −49.77.

What about the “−log (p) (Sce)” value ([2]; gene ERG1, dose 2.5 ug/ml) of the same molecule?
The value was −80.59.

What about the “−log (p) (Sce)” value ([2]; gene RRP1, dose 7.2 μM) of the same molecule?
Its value is −4.515.

Which results are given for `Cn1c(=O)c2[nH]cnc2n(C)c1=O` [Theophylline anhydrous]?
PF2DT: PFDT of the sample obtained from 20 generation subculture [3, 4]: 0.924; PF1DT: PFDT of the sample obtained from 10 generation subculture [3, 5]: 0.887
